Source: ChEMBL document CHEMBL4387736, “Anticancer saponin OSW-1 is a novel class of selective Golgi stress inducer” (Bioorg Med Chem Lett, 2019)
Active and inactive are the calls of the source. The calls are words filed in the database; no cut-off is given here.

How the values were obtained:
[1] = test system: HeLa; assay: Induction of ER stress in human HeLa cells assessed as effect on pATF6(P) level at 1 uM incubated for 1 to 24 hrs by immunoblotting analysis; format: functional, cell-based
[2] = test system: Panel NCI-60 (60 carcinoma cell lines); assay: Growth inhibition of human NCI60 cells; format: functional
[3] = test system: HeLa; assay: Induction of ER stress in human HeLa cells assessed as effect on ATF4 level at 1 uM incubated for 1 to 24 hrs by immunoblotting analysis; format: functional, cell-based
[4] = test system: HeLa; assay: Induction of ER stress in human HeLa cells assessed as effect on pXBP1(S) level at 1 uM incubated for 1 to 24 hrs by immunoblotting analysis; format: functional, cell-based
[5] = test system: HeLa; assay: Induction of ER stress in human HeLa cells assessed as effect on ERdj4 mRNA level at 2 uM incubated for 1 1 hrs by qRT-PCR analysis; format: functional, cell-based
[6] = target: T1, Oxysterol-binding protein 1 (Homo sapiens) (UniProt P22059); assay: Induction of OSBP localization in golgi apparatus of human HeLa cells assessed as dispersion of GM130 in to cytosol at 2 uM incubated for 6 hrs by immunofluorescence microscopic method; format: cell-based
T1 sequence (whole entry): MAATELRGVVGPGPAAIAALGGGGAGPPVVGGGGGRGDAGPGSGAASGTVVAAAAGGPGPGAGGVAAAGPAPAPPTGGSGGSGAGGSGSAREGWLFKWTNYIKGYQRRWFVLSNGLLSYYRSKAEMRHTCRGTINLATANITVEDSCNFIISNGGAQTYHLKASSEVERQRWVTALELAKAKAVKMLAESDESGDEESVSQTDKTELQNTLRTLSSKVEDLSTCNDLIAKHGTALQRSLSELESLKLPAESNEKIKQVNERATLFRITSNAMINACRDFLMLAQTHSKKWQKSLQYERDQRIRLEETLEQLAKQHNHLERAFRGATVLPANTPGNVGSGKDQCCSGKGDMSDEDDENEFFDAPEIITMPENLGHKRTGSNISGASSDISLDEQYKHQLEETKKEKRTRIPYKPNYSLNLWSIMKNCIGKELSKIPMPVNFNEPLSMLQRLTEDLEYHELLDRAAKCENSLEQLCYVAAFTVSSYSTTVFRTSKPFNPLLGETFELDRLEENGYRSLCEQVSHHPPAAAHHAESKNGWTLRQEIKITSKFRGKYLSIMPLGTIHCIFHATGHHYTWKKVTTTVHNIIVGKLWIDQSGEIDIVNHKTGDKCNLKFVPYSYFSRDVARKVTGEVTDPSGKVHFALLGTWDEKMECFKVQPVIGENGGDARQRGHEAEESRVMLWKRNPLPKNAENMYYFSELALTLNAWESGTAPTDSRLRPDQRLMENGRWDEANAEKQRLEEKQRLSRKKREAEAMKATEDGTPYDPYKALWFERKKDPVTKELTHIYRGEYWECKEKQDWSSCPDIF

[7] = target: T1, Oxysterol-binding protein 1 (Homo sapiens); assay: Inhibition of OSBP in human HeLa cells assessed as induction of golgi stress by measuring increase in TFE3-mediated UAP1L1 mRNA expression at 2 uM incubated for 12 hrs; format: cell-based
[8] = test system: HeLa; assay: Induction of ER stress in human HeLa cells assessed as effect on pATF6(N) level at 1 uM incubated for 1 to 24 hrs by immunoblotting analysis; format: functional, cell-based
[9] = test system: HeLa; assay: Induction of ER stress in human HeLa cells assessed as effect on CHOP mRNA level at 2 uM incubated for 1 1 hrs by qRT-PCR analysis; format: functional, cell-based
[10] = target: T1, Oxysterol-binding protein 1 (Homo sapiens); assay: Inhibition of OSBP in human HeLa cells assessed as induction of golgi stress by measuring upregulation of ARF4 mRNA expression at 2 uM incubated for 12 hrs; format: cell-based
[11] = target: T1, Oxysterol-binding protein 1 (Homo sapiens); assay: Inhibition of OSBP in human HeLa cells assessed as induction of golgi stress by measuring GASE transactivation at 1 uM incubated for 24 hrs by GASE-luciferase reporter gene assay; format: cell-based
[12] = target: T1, Oxysterol-binding protein 1 (Homo sapiens); assay: Induction of OSBP localization in golgi apparatus of human HeLa cells assessed as increase in colocalization of 58K golgi protein at 5 nM incubated for 30 mins by immunofluorescence imaging method; format: cell-based
[13] = test system: HeLa; assay: Induction of ER stress in human HeLa cells assessed as effect on CHOP level at 1 uM incubated for 1 to 24 hrs by immunoblotting analysis; format: functional, cell-based
[14] = target: T1, Oxysterol-binding protein 1 (Homo sapiens); assay: Inhibition of OSBP in human HeLa cells assessed as induction of golgi stress by measuring increase in TFE3-mediated SIAT4A mRNA expression at 2 uM incubated for 12 hrs; format: cell-based
[15] = test system: HeLa; assay: Induction of ER stress in human HeLa cells assessed as effect on P-eIF2alpha level at 1 uM incubated for 1 to 24 hrs by immunoblotting analysis; format: functional, cell-based
[16] = target: T1, Oxysterol-binding protein 1 (Homo sapiens); assay: Inhibition of OSBP in human HeLa cells assessed as induction of golgi stress by measuring TFE3 nuclear translocation at 2 uM incubated for 4 hrs by immunofluorescence imaging analysis; format: cell-based
[17] = target: T1, Oxysterol-binding protein 1 (Homo sapiens); assay: Inhibition of OSBP in human HeLa cells assessed as induction of golgi stress by measuring TFE3(S)/TFE3(L) dephosphorylation at 1 uM incubated for 2 hrs by Western blot analysis; format: cell-based
[18] = test system: HeLa; assay: Induction of ER stress in human HeLa cells assessed as effect on BiP mRNA level at 2 uM incubated for 1 1 hrs by qRT-PCR analysis; format: functional, cell-based
[19] = target: T1, Oxysterol-binding protein 1 (Homo sapiens); assay: Inhibition of OSBP in human HeLa cells assessed as induction of golgi stress by measuring downregulation of HSP47 mRNA expression at 2 uM incubated for 12 hrs; format: cell-based
[20] = target: T1, Oxysterol-binding protein 1 (Homo sapiens); assay: Induction of OSBP localization in golgi apparatus of human HeLa cells assessed as induction of cytosolic OSBP aggregation into vesicular structures at Golgi at 0.5 uM by eYFP detection based time-lapse imaging; format: cell-based
[21] = target: T1, Oxysterol-binding protein 1 (Homo sapiens); assay: Inhibition of OSBP in human HeLa cells assessed as induction of golgi stress by measuring increase in TFE3-mediated GM130 mRNA expression at 2 uM incubated for 12 hrs; format: cell-based
[22] = target: T1, Oxysterol-binding protein 1 (Homo sapiens); assay: Inhibition of OSBP in human HeLa cells assessed as induction of golgi stress by measuring increase in TFE3-mediated GCP60 mRNA expression at 2 uM incubated for 12 hrs; format: cell-based
[23] = test system: HeLa; assay: Induction of ER stress in human HeLa cells assessed as effect on eIF2alpha level at 1 uM incubated for 1 to 24 hrs by immunoblotting analysis; format: functional, cell-based
[24] = target: T1, Oxysterol-binding protein 1 (Homo sapiens); assay: Induction of OSBP localization in golgi apparatus of human HeLa cells assessed as dispersion of giantin in to cytosol at 2 uM incubated for 6 hrs by immunofluorescence microscopic method; format: cell-based
[25] = Drug localization in golgi apparatus of human HeLa cells at 0.5 uM by fluorescence microscopy; format: ADME, subcellular

Compound: COc1ccc(C(=O)O[C@H]2[C@H](O[C@@H]3[C@@H](OC(C)=O)[C@H](O[C@H]4C[C@H]5[C@@H]6CC=C7C[C@@H](O)CC[C@]7(C)[C@H]6CC[C@]5(C)[C@@]4(O)[C@H](C)C(=O)CCC(C)C)OC[C@@H]3O)OC[C@@H](O)[C@@H]2O)cc1
- Activity [1]: inactive
- GI50 [2]: 0.78 nM
- Activity [3]: inactive
- Activity [4]: inactive
- Activity [5]: inactive
- Activity [6]: Active
- inhibition [7]: Active
- Activity [8]: inactive
- Activity [9]: inactive
- inhibition [10]: Active
- inhibition [11]: Active
- Activity [12]: Active
- Activity [13]: inactive
- inhibition [14]: Active
- Activity [15]: inactive
- inhibition [16]: Active
- inhibition [17]: Active
- Activity [18]: inactive
- inhibition [19]: Active
- Activity [20]: Active
- inhibition [21]: Active
- inhibition [22]: Active
- Activity [23]: inactive
- Activity [24]: Active

Compound: COc1ccc(C(=O)O[C@H]2[C@H](O[C@@H]3[C@@H](OC(C)=O)[C@H](O[C@H]4C[C@H]5[C@@H]6CC=C7C[C@@H](O)CC[C@]7(C)[C@H]6CC[C@]5(C)[C@@]4(O)[C@H](C)C(=O)CCC(C)C)OC[C@@H]3O)OC[C@@H](OC(=O)CN(C)c3ccc(S(=O)(=O)N(C)C)c4nonc34)[C@@H]2O)cc1
- GI50 [2]: 4 nM
- Drug uptake [25]: Active
